Data from patent US10251915B2, “Co-encapsulation of live cells with oxygen-generating particles” (Wake Forest University Health Sciences, priority 2011, dated 2019).
“Also recorded” adds a separate entry of the source.

Legend:
[1] = Oxygen release (dissolved oxygen) from POGS encapsulated in alginate microbeads in a hypoxic chamber; type: physicochemical; conditions: for duration of oxygen release from alginate microbeads containing MgO2 in the presence of antioxidant: 2.5% MPO in alginate microcapsules, 100 U/ml catalase, 1.5 mM Trolox, compared to MPO alone
From the text: FIG. 1: Comparison of CaO2 and MgO2 release over six days, dissolved oxygen readings are an average of 5 sample groups with 1500 microcapsules each; measurements were taken in a hypoxic chamber.
FIG. 2: Effect of antioxidants on oxygen release from alginate microcapsules with 2.5% MPO.
Comparison of CPO and MPO: We first examined the oxygen release profiles of two POGS, CPO and MPO encapsulated in alginate microbeads in the absence or presence of catalase (100 U/ml), and the antioxidant, Trolox (1.5 mM). Sieves were used to select both MPO and CPO particles equal to and less than 25 μm in diameter. Then 0.5% by weight solution of 1.5% LVM and either CPO or MPO were prepared respectively. These solutions were then extruded through an encapsulating device forming microspheres measuring […] in diameter, which were allowed to crosslink for 15 minutes in 1.1% CaCl2 solution. After cross-linking, the microbeads were rinsed with HBSS and placed into 50 ml conical tubes (BD, USA) containing 20 mL ultra pure water with 10 mM HEPES (pH=7.4). Tubes were placed in a 1% oxygen environment in a hypoxic glovebox system (Biospherix, USA) with the caps of the tubes removed allowing for gas exchange. Dissolved oxygen readings were taken every 24 hours for 6 days using an Orion 4-star DO Probe (Thermo Science).
Oxygen release from MPO Alginate Capsules: On the basis of a better release profile, we then selected MgO2 for further studies. First the release profiles of various concentrations of MPO were measured. Using the same technique as described above 0%, 0.25%, 0.5%, 1%, 1.5%, 2.0%, 2.5%, 5%, 10%, 20%, 30%, and 40% (by weight) solutions of MPO in 1.5% UP LVM were prepared, with particles larger than 25 μM sieved out of the solution prior to encapsulation. […] Dissolved oxygen levels were measured for up to 250 hours. Using the same methodology we then assessed the effect of the antioxidants, Catalase and Trolox, on oxygen release. […] Capsules were prepared and dissolved oxygen levels were measured as described earlier. […] Dissolved oxygen levels were measured for up to 250 hours.

Isolated human islets = test: MTS viability assay of islets co-cultured with MPO and antioxidants; type: cell-based
Description: FIG. 4: Viability of islets co-cultured with MPO and antioxidants. Isolated human islets were co-cultured with 10 mM MPO for 2 days in normal culture conditions with the following antioxidants: 100 Units/mL Catalase, 1.5 mM Trolox and 30 μM MnTE-2-Pyp. After the two day culture period islet viabilty was determined with an MTS assay. Error bars represent standard deviation, n=5.
Previous studies have shown that the isolation process predisposes islets to subsequent damage and functional impairment and that an SOD mimicking catalytic antioxidant, MnTE-2-PyP (also called AEOL10113), developed by Drs.

[2] = system: islet cell functional mass; conditions: used in the isolation or culture medium; cited from earlier work

Molecule: [Mg+2].[O-][O-] [MPO, Magnesium Peroxide]
- release of oxygen ([1]; 0.5% by weight CPO or MPO in 1.5% LVM alginate microbeads, 1% oxygen environment, readings every 24 hours for 6 days): higher release of oxygen for up to five days compared to CPO
- effect of MPO on islet viability (Isolated human islets; 10 mM MPO, 2 days normal culture): diminishing effect

Molecule: CC[n+]1ccccc1-c1c2nc(c(-c3cccc[n+]3CC)c3ccc([n-]3)c(-c3cccc[n+]3CC)c3nc(c(-c4cccc[n+]4CC)c4ccc1[n-]4)C=C3)C=C2.[Mn+3] [MnTE-2-PyP, Mn (III) tetrakis (N-ethylpyridinium-2-yl) porphyrin]
- preservation of islet cell functional mass [2]: beneficial in preserving islet cell functional mass
- effect on viability of islets co-cultured with MPO (Isolated human islets; 10 mM MPO, 30 μM MnTE-2-Pyp, 2 days normal culture): counteracts the diminishing effect of MPO on islet viability
- viability of isolated human islets (Isolated human islets; added to islets in normal culture, 30 μM MnTE-2-Pyp, 2 days, n=5): significantly (p<0.05) enhances the viability

Molecule: Cc1c(C)c2c(c(C)c1O)CCC(C)(C(=O)O)O2 (stereo not shown) [Trolox, 6-hydroxy-2,5,7,8-tetramethylchroman-2-carboxylic acid]
- duration of oxygen release from alginate microbeads containing MgO2 in the presence of antioxidant [1]: this effect is not observed; also recorded: no significant change

B1: catalase: Catalase (from bovine liver), peroxide decomposition catalyst (protein, UniProt P00432 2-527, looked up)
Catalase: ADNRDPASDQMKHWKEQRAAQKPDVLTTGGGNPVGDKLNSLTVGPRGPLLVQDVVFTDEMAHFDRERIPERVVHAKGAGAFGYFEVTHDITRYSKAKVFEHIGKRTPIAVRFSTVAGESGSADTVRDPRGFAVKFYTEDGNWDLVGNNTPIFFIRDALLFPSFIHSQKRNPQTHLKDPDMVWDFWSLRPESLHQVSFLFSDRGIPDGHRHMNGYGSHTFKLVNANGEAVYCKFHYKTDQGIKNLSVEDAARLAHEDPDYGLRDLFNAIATGNYPSWTLYIQVMTFSEAEIFPFNPFDLTKVWPHGDYPLIPVGKLVLNRNPVNYFAEVEQLAFDPSNMPPGIEPSPDKMLQGRLFAYPDTHRHRLGPNYLQIPVNCPYRARVANYQRDGPMCMMDNQGGAPNYYPNSFSAPEHQPSALEHRTHFSGDVQRFNSANDDNVTQVRTFYLKVLNEEQRKRLCENIAGHLKDAQLFIQKKAVKNFSDVHPEYGSRIQALLDKYNEEKPKNAVHTYVQHGSHLSAREKANL
- duration of oxygen release from alginate microbeads containing MgO2 in the presence of antioxidant [1]: significantly shortened
